Results from patent US10947366B2, “Hollow mineral tubes comprising essential oils and uses thereof” (TECHNION RESEARCH & DEVELOPMENT FOUNDATION LTD., priority 2015, dated 2021).
Like-named read-outs stand apart in the source and are kept apart here.

Legend:
[1] = at 20° C.-25° C.; cited from earlier work
E. coli = experiment: Agar diffusion assay (Kirby-Bauer disk diffusion) of LDPE-based films; assay type: cell-based; settings: dose additivity model
Description: Fresh LDPE/(HNTs/CV-TY), LDPE/(HNTs/CV) and LDPE/TY films (12 mm in diameter and 150 μm thick) were conditioned at 60° C. for different time intervals to accelerate the release of the EOs from the films. The films were sampled after different durations, and the content of the respective EOs were determined by Fourier-transform infrared spectroscopy in transmission mode. Subsequently, the discs were placed onto the surface of a Luria broth (LB) agar plate seeded with 10^8 CFU ml^−1 of E. coli culture (0.1 mL). […] All tests were performed in triplicates, and at least 15 different specimens are studied for each film type of each. Neat LDPE films were used as a negative control.
Interactions between CV and TY were assessed based on the results obtained by the agar diffusion assay studies. Two common models of synergistic activity are applied:
(1) effect additivity (Axelrad, Howard, & McLean, 2002) and (2) dose additivity (Berenbaum, 1978). […] The second model is based on building curves that illustrate various combinations of two antimicrobials that produce the same effect. Antimicrobial doses of the same efficiency are connected by the additivity line that predicts a zero interaction. Deviations from this prediction can be interpreted as antagonism or synergy. […]

[2] = EO content in films after melt compounding and processing, determined by TGA; assay type: physicochemical; settings: pure EO in LDPE film without HNTs, initial 4 %
Description: (§1) Hybrids were characterized by thermal gravimetric analysis (TGA) using TGA-Q5000 system (TA instruments, USA) at a heating rate of 20° C./min under nitrogen atmosphere, starting at room temperature up to 600° C.
Table 4 below summarizes the carvacrol and HNTs content in different films (following melt compounding and processing) determined by TGA (initial carvacrol content, pre-processing, was 4 wt % and initial HNTs content was 2 wt %).
The resulting films were studied by thermal gravimetric analysis (TGA) in order to examine the effect of the HNTs carriers on the residual carvacrol content following the harsh high-temperature melt-compounding and processing of PA. Table 5 summarizes the results of these experiments showing carvacrol content in different carvacrol-containing films, determined by TGA.
The EOs content and distribution within the LDPE matrix are important parameters, crucial in determining the mechanical and antimicrobial performance of the nanocomposite systems (R. Shemesh et al., 2015). Thus, the total volatile content within the LDPE-based films was investigated using TGA, and the results are summarized in Table 14 showing carvacrol and thymol concentrations in different LDPE-based films as determined by TGA and FTIR spectroscopy.

E. coli (ATCC 8739) = experiment: Chequerboard antimicrobial susceptibility to pure carvacrol, thymol and their combinations; assay type: cell-based; settings: Escherichia coli, ATCC8739
Description: Bacterial susceptibility to pure carvacrol, thymol and their mixtures was characterized by the standard chequerboard procedure for antimicrobial susceptibility for combination of antimicrobials (Franzot & Casadevall, 1997; Pei, Zhou, Ji, & Xu, 2009).
Accordingly, in exemplary procedures, stock aqueous emulsions of thymol and carvacrol (at a concentration of 6400 mg L^−1 in MillyQ water, […]) are prepared by ultrasonication (Vibra cell VCX 750, Sonics & Materials Inc., USA) for 3 min at a constant amplitude of 40%, on ice bath using small amounts of Tween-80. […] The plate is sealed with SealPlate® (Excel Scientific Inc., Victorville, CV, US) incubated at 37° C. for 4 h under gentle shacking in a microplate reader (Varioskan Flash, Thermo Scientific, USA). Absorbance measurements are recorded at 600 nm every 3 min. […]
The MIC of carvacrol and thymol and their combination against E. coli (ATCC 8739) were determined using the standard chequerboard procedure for antimicrobial susceptibility for combination of antimicrobials (Franzot & Casadevall, 1997; Pei et al., 2009).
FIG. 13A presents characteristic E. coli growth curves in media containing a constant thymol concentration (75 mg L^−1) and varying carvacrol concentrations (0 to 200 mg L^−1). […] While at a lower concentration (100 mg L^−1), a profound lag time of ˜200 min in bacterial growth is recorded. […]

[3] = Thermal gravimetric analysis (TGA) of EOs and HNTs/EO hybrids, thermal stability; assay type: physicochemical; settings: 20° C./min, nitrogen
Description: as §1
Thermal gravimetric analysis (TGA) is performed using TGA-Q5000 system (TA Instruments, USA). Samples are heated under nitrogen atmosphere from room temperature to 600° C. at a heating rate of 20° C. min^−1. The results are analyzed using Universal […] version 4.5A build 4.5.0.5 software.

SMILES | vapor pressure [1] [mmHg] | in-film EO concentration giving 19 mm inhibition zone (E. coli) [%] | reduction of EO concentration during high-temperature processing [2] [%] | MIC (E. coli (ATCC 8739); LB medium, 37° C., 4 h, inhibition = lag time above 200 min, read-out: MIC) [µg/mL] | MIC (E. coli (ATCC 8739)) [µg/mL] | temperature at which weight loss (evaporation) of the EO is completed [3]
C=CC(C)(O)CCC=C(C)C (centres unmarked) [linalool, Linalool] | 0.17 | – | – | – | – | –
Cc1ccc(C(C)C)c(O)c1 [thymol, Thymol] | 0.002 | 1.4 | 35 | 300 | – | –
CC(C)=CCCC(C)=CC=O [citral, Citral] | 0.22 | – | – | – | – | –
Cc1ccc(C(C)C)cc1O [carvacrol, Carvacrol] | 0.023 | 1.5 | 55 | – | 200 | about 165 °C
